According to patent publication US6172038A, “Antipathogenic peptides and compositions comprising them” (priority 1996, dated 2001):

Experiments:
Type in all cases: cell-based
Escherichia coli D21 = assay: Antibacterial activity (MIC), growth inhibition in 96-well plates
[1] = tested on: Acinetobacter calcoaceticus Ac11; assay: as above; conditions: 100% inhibition of growth after 18-20 h at 37° C.
Bacillus megaterium Bm11 = assay: as above; conditions: 100% inhibition of growth after 18-20 h at 37° C.
[2] = tested on: Pseudomonas aeruginosa ATCC 27853; assay: Antibacterial activity (MIC), growth inhibition in 96-well plates; also synergy with tetracycline
Protocol: (viii) Antibacterial activity of the peptides.
Antibacterial activity of the mixtures was determined as described in Experimental procedures, section (xii).

[3] = tested on: Bacillus subtilis ATCC 6051; assay: Antibacterial activity (MIC), growth inhibition in 96-well plates; conditions: 100% inhibition of growth after 18-20 h at 37° C.
[4] = tested on: human red blood cells (hRBC); assay: Hemolysis of human red blood cells; conditions: 50 μM peptide, 30 min at 37° C.
Protocol: (ix) Hemolysis of human red blood cells. The peptides were tested for their hemolytic activities against human red blood cells (hRBC). Fresh hRBC with EDTA were rinsed 3 times with PBS (35 mM phosphate buffer/0.15 M NaCl, pH 7.3) by centrifugation for 10 min at 800 g and resuspended in PBS. Peptides dissolved in PBS were then added to 50 μL of a solution of the stock hRBC in PBS to reach a final volume of 100 μL (final erythrocyte concentration, 5% v/v). The resulting suspension was incubated under agitation for 30 min at 37° C. The samples were then centrifuged at 800 g for 10 min. Release of hemoglobin was monitored by measuring the absorbance of the supernatant at 540 nm. Controls for zero hemolysis (blank) and 100% hemolysis consisted of hRBC suspended in PBS and Triton 1%, respectively.

[5] = tested on: P. aeruginosa and E. coli; assay: Effect of pooled human serum on antibacterial activity
Protocol: (vi) Preparation of serunl Blood was collected from five volunteers and allowed to clot at room temperature for 4 h. The blood was then centrifuged for 15 min at 1500 g, and the serum was removed and pooled. The serum complement was inactivated by heating at 56° C. for 30 min.
(viii) Antibacterial activity of the peptides. The antibacterial activity of the diastereomers was examined in sterile 96-well plates (Nunc F96 microtiter plates) in a final volume of 100 μL as follows: Aliquots (50 μl) of a suspension containing bacteria at a concentration of 10^6 Colony-Forming Units (CFU)/ml LB (Lauria broth) medium were added to 50 μL of water or 66% pooled normal human serum in PBS, containing the peptide in 2-fold serial dilutions. Growth inhibition was determined by measuring the absorbance at 492 nm with a Microplate autoreader El309 (Bio-tek Instruments), following incubation for 18-20 h at 37° C. […] The bacteria used were: Escherichia coli D21, Pseudomonas aeruginosa ATCC 27853, Acinetobacter calcoaceticus Acl1, Salmonella typhimurium LT2, Bacillus megaterium Bml1, Micrococcus luteus ATCC 9341, Bacillus subtilis ATCC 6051.

[6] = 100% inhibition of growth after 18-20 h at 37° C.

Question: With dermaseptin S [reference compound] as the substance, how does the “Minimal Inhibitory Concentration E. coli (D21) 0% Serum” value (Escherichia coli D21; 0% Serum) read?
Answer: Its value is 6 µM.

Question: And the “Minimal Inhibitory Concentration E. coli (D21) 33% Serum” value (Escherichia coli D21; 33% pooled human serum)?
Answer: Its value is 50 µM.

Question: And the “Minimal Inhibitory Concentration E. coli (D21)” value (Escherichia coli D21; [6])?
Answer: Its value is 6 µM.

Question: What about the “Minimal Inhibitory Concentration A. calcoaceticus (Ac11)” value [1] of the same substance?
Answer: Its value is 3 µM.

Question: What about the “Minimal Inhibitory Concentration B. megaterium (Bm11)” value (Bacillus megaterium Bm11) of the same substance?
Answer: Its value is 0.5 µM.

Question: What about the “Minimal Inhibitory Concentration P. aeruginosa (ATCC-27853) 0% Serum” value ([2]; 0% Serum) of the same substance?
Answer: The value was 25 µM.

Question: And the “Minimal Inhibitory Concentration P. aeruginosa (ATCC-27853) 33% Serum” value ([2]; 33% pooled human serum)?
Answer: The value was 200 µM.

Question: And the “Minimal Inhibitory Concentration P. aeruginosa (ATCC 27853)” value [2, 6]?
Answer: The value was 25 µM.

Question: And the “Minimal Inhibitory Concentration B. subtilis (ATCC 6051)” value [3]?
Answer: Its value is 4 µM.

Question: What about the “% hemolysis at 50 μM peptide” value [4] of the same substance?
Answer: The value was 9%.

Question: What about the “fold less active in the presence of serum” value [5] of the same substance?
Answer: The value was 8-10 fold.
